Measured values: PubChem BioAssay (NCI)
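Exposure lasted 48 hours, with cells grown in 96-well plates and compounds tested at five concentrations. GI50 marks 50% less growth. The concentration for full growth arrest is given as TGI.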

Legend:
Experiment in all cases: DTP human tumour cell line panel, 48 h
CAKI-1 renal = system: CAKI-1 renal
TK-10 renal = system: TK-10 renal
HOP-92 NSCLC = system: HOP-92 NSCLC
RXF 393 renal = system: RXF 393 renal
HT29 colon = system: HT29 colon
SW-620 colon = system: SW-620 colon
UO-31 renal = system: UO-31 renal
MALME-3M melanoma = system: MALME-3M melanoma
NCI-H460 lung = system: NCI-H460 lung
SK-MEL-28 melanoma = system: SK-MEL-28 melanoma
SF-539 CNS = system: SF-539 CNS
HCT-15 colon = system: HCT-15 colon
OVCAR-5 ovarian = system: OVCAR-5 ovarian
SNB-19 CNS = system: SNB-19 CNS
SR leukemia = system: SR leukemia
RPMI-8226 leukemia = system: RPMI-8226 leukemia
UACC-62 melanoma = system: UACC-62 melanoma
MOLT-4 leukemia = system: MOLT-4 leukemia
U251 CNS = system: U251 CNS
SN12C renal = system: SN12C renal
KM12 colon = system: KM12 colon
COLO 205 colon = system: COLO 205 colon
CCRF-CEM leukemia = system: CCRF-CEM leukemia
786-0 renal = system: 786-0 renal
SK-MEL-5 melanoma = system: SK-MEL-5 melanoma
M14 melanoma = system: M14 melanoma
HS 578T breast = system: HS 578T breast
BT-549 breast = system: BT-549 breast
UACC-257 melanoma = system: UACC-257 melanoma
LOX IMVI melanoma = system: LOX IMVI melanoma
A498 renal = system: A498 renal
HCC-2998 colon = system: HCC-2998 colon
DU-145 prostate = system: DU-145 prostate
SF-295 CNS = system: SF-295 CNS
HCT-116 colon = system: HCT-116 colon
MCF7 breast = system: MCF7 breast
MDA-MB-231 breast = system: MDA-MB-231 breast
A549 NSCLC = system: A549 NSCLC
OVCAR-4 ovarian = system: OVCAR-4 ovarian
ACHN renal = system: ACHN renal
OVCAR-3 ovarian = system: OVCAR-3 ovarian
SK-MEL-2 melanoma = system: SK-MEL-2 melanoma
SF-268 CNS = system: SF-268 CNS
NCI-H522 lung = system: NCI-H522 lung
NCI/ADR-RES ovarian = system: NCI/ADR-RES ovarian
PC-3 prostate = system: PC-3 prostate
IGROV1 ovarian = system: IGROV1 ovarian
K-562 leukemia = system: K-562 leukemia
NCI-H226 lung = system: NCI-H226 lung
SK-OV-3 ovarian = system: SK-OV-3 ovarian
OVCAR-8 ovarian = system: OVCAR-8 ovarian
EKVX NSCLC = system: EKVX NSCLC
HL-60(TB) leukemia = system: HL-60(TB) leukemia
NCI-H23 lung = system: NCI-H23 lung
HOP-62 NSCLC = system: HOP-62 NSCLC
SNB-75 CNS = system: SNB-75 CNS
MDA-MB-435 = system: MDA-MB-435

CCOC(=O)n1cc(C2=C(c3ccc(OC)c(OC)c3)COC2=O)c2ccccc21
GI50 (CAKI-1 renal): 46.5 nM | TGI (CAKI-1 renal): 37100 nM | GI50 (TK-10 renal): 13500 nM | TGI (TK-10 renal): > 91500 nM | GI50 (HOP-92 NSCLC): 161 nM | TGI (HOP-92 NSCLC): > 52800 nM | GI50 (RXF 393 renal): 25.2 nM | TGI (RXF 393 renal): > 100000 nM | GI50 (HT29 colon): 36.4 nM | TGI (HT29 colon): > 100000 nM | GI50 (SW-620 colon): 41.7 nM | TGI (SW-620 colon): > 100000 nM | GI50 (UO-31 renal): 63.2 nM | TGI (UO-31 renal): > 100000 nM | GI50 (MALME-3M melanoma): 66.6 nM | TGI (MALME-3M melanoma): > 100000 nM | GI50 (NCI-H460 lung): 122 nM | TGI (NCI-H460 lung): 18300 nM | GI50 (SK-MEL-28 melanoma): 271 nM | TGI (SK-MEL-28 melanoma): > 100000 nM | GI50 (SF-539 CNS): 31 nM | TGI (SF-539 CNS): 156 nM | GI50 (HCT-15 colon): 40.8 nM | TGI (HCT-15 colon): > 100000 nM | GI50 (OVCAR-5 ovarian): 199 nM | TGI (OVCAR-5 ovarian): > 100000 nM | GI50 (SNB-19 CNS): 55.1 nM | TGI (SNB-19 CNS): > 100000 nM | GI50 (SR leukemia): 29.7 nM | TGI (SR leukemia): > 100000 nM | GI50 (RPMI-8226 leukemia): 32.7 nM | TGI (RPMI-8226 leukemia): 1650 nM | GI50 (UACC-62 melanoma): 43.6 nM | TGI (UACC-62 melanoma): > 100000 nM | GI50 (MOLT-4 leukemia): 58.1 nM | TGI (MOLT-4 leukemia): > 100000 nM | GI50 (U251 CNS): 53.6 nM | TGI (U251 CNS): > 100000 nM | GI50 (SN12C renal): 68.1 nM | TGI (SN12C renal): > 100000 nM | GI50 (KM12 colon): 44.1 nM | TGI (KM12 colon): 14100 nM | GI50 (COLO 205 colon): 52.2 nM | TGI (COLO 205 colon): 940 nM | GI50 (CCRF-CEM leukemia): 36.7 nM | TGI (CCRF-CEM leukemia): > 100000 nM | GI50 (786-0 renal): 62.5 nM | TGI (786-0 renal): > 100000 nM | GI50 (SK-MEL-5 melanoma): 41 nM | TGI (SK-MEL-5 melanoma): 480 nM | GI50 (M14 melanoma): 34.8 nM | TGI (M14 melanoma): > 100000 nM | GI50 (HS 578T breast): 87 nM | TGI (HS 578T breast): > 100000 nM | GI50 (BT-549 breast): 105 nM | TGI (BT-549 breast): 22600 nM | GI50 (UACC-257 melanoma): 16100 nM | TGI (UACC-257 melanoma): > 100000 nM | GI50 (LOX IMVI melanoma): 62.3 nM | TGI (LOX IMVI melanoma): > 100000 nM | GI50 (A498 renal): 22.6 nM | TGI (A498 renal): 139 nM | GI50 (HCC-2998 colon): 89.1 nM | TGI (HCC-2998 colon): 16500 nM | GI50 (DU-145 prostate): 79.4 nM | TGI (DU-145 prostate): > 100000 nM | GI50 (SF-295 CNS): 38.8 nM | TGI (SF-295 CNS): > 100000 nM | GI50 (HCT-116 colon): 48.2 nM | TGI (HCT-116 colon): > 100000 nM | GI50 (MCF7 breast): 33.6 nM | TGI (MCF7 breast): > 100000 nM | GI50 (MDA-MB-231 breast): 160 nM | TGI (MDA-MB-231 breast): > 100000 nM | GI50 (A549 NSCLC): 110 nM | TGI (A549 NSCLC): > 100000 nM | GI50 (OVCAR-4 ovarian): 2360 nM | TGI (OVCAR-4 ovarian): > 100000 nM | GI50 (ACHN renal): 61.5 nM | TGI (ACHN renal): > 73100 nM | GI50 (OVCAR-3 ovarian): 33.2 nM | TGI (OVCAR-3 ovarian): 114 nM | GI50 (SK-MEL-2 melanoma): 402 nM | TGI (SK-MEL-2 melanoma): > 100000 nM | GI50 (SF-268 CNS): 262 nM | TGI (SF-268 CNS): > 100000 nM | GI50 (NCI-H522 lung): 38.9 nM | TGI (NCI-H522 lung): > 33300 nM | GI50 (NCI/ADR-RES ovarian): 41.5 nM | TGI (NCI/ADR-RES ovarian): > 100000 nM | GI50 (PC-3 prostate): 40.4 nM | TGI (PC-3 prostate): > 100000 nM | GI50 (IGROV1 ovarian): 55.5 nM | TGI (IGROV1 ovarian): > 100000 nM | GI50 (K-562 leukemia): 32.5 nM | TGI (K-562 leukemia): > 100000 nM | GI50 (NCI-H226 lung): 54.8 nM | TGI (NCI-H226 lung): > 100000 nM | GI50 (SK-OV-3 ovarian): 817 nM | TGI (SK-OV-3 ovarian): > 100000 nM | GI50 (OVCAR-8 ovarian): 95.4 nM | TGI (OVCAR-8 ovarian): > 100000 nM | GI50 (EKVX NSCLC): 93.8 nM | TGI (EKVX NSCLC): > 100000 nM | GI50 (HL-60(TB) leukemia): 27.9 nM | TGI (HL-60(TB) leukemia): 85.1 nM | GI50 (NCI-H23 lung): 157 nM | TGI (NCI-H23 lung): > 100000 nM | GI50 (HOP-62 NSCLC): 75 nM | TGI (HOP-62 NSCLC): > 100000 nM

COc1cc(OCCN(C)C)c2[nH]c(C(=O)N3CC(CCl)c4ccc(N)cc43)cc2c1 (stereo unspecified)
TGI (TK-10 renal): 1090 nM | TGI (HOP-92 NSCLC): 617 nM | TGI (RXF 393 renal): 33 nM | TGI (HT29 colon): 262 nM | TGI (UO-31 renal): 2250 nM | TGI (HCT-15 colon): 1580 nM | TGI (OVCAR-5 ovarian): 5630 nM | TGI (SNB-19 CNS): 2590 nM | TGI (SR leukemia): > 100000 nM | TGI (RPMI-8226 leukemia): 271 nM | TGI (UACC-62 melanoma): 567 nM | TGI (MOLT-4 leukemia): 52.2 nM | TGI (U251 CNS): 3320 nM | TGI (KM12 colon): 126 nM | TGI (COLO 205 colon): 170 nM | TGI (CCRF-CEM leukemia): 68.4 nM | TGI (786-0 renal): 1470 nM | TGI (SK-MEL-5 melanoma): 197 nM | TGI (M14 melanoma): 1130 nM | TGI (UACC-257 melanoma): 329 nM | TGI (A498 renal): 508 nM | TGI (HCC-2998 colon): 297 nM | TGI (DU-145 prostate): 1020 nM | TGI (HCT-116 colon): 1640 nM | TGI (MCF7 breast): 133 nM | TGI (MDA-MB-231 breast): 9370 nM | TGI (A549 NSCLC): > 34300 nM | TGI (SNB-75 CNS): 565 nM | TGI (OVCAR-4 ovarian): 1320 nM | TGI (MDA-MB-435): 281 nM | TGI (OVCAR-3 ovarian): 607 nM | TGI (SK-MEL-2 melanoma): 93.3 nM | TGI (SF-268 CNS): 908 nM | TGI (NCI/ADR-RES ovarian): 1000 nM | TGI (PC-3 prostate): 1340 nM | TGI (K-562 leukemia): > 100000 nM | TGI (NCI-H226 lung): 2580 nM | TGI (SK-OV-3 ovarian): 32000 nM | TGI (EKVX NSCLC): 1370 nM | TGI (NCI-H23 lung): 316 nM | TGI (HOP-62 NSCLC): 50.7 nM

N=C(N)c1ccc(OCCCCCCCCCCOc2ccc(C(=N)N)cc2)cc1
GI50 (RXF 393 renal): 1280 nM | TGI (RXF 393 renal): 2870 nM | GI50 (HCC-2998 colon): 1290 nM | TGI (HCC-2998 colon): 2790 nM | GI50 (DU-145 prostate): 1610 nM | TGI (DU-145 prostate): 3010 nM | GI50 (ACHN renal): 1540 nM | TGI (ACHN renal): 2880 nM | GI50 (NCI/ADR-RES ovarian): 17700 nM | TGI (NCI/ADR-RES ovarian): 83700 nM
